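All cell lines were grown in 96-well plates and treated with compound for 48 hours. GI50 is the concentration that inhibits growth by half. TGI is the concentration that stops growth completely.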
Key:
Test in all cases: NCI-60 cell line screen, 48 h
[1] = tested on: SK-MEL-5 melanoma
[2] = tested on: UACC-62 melanoma
[3] = tested on: OVCAR-5 ovarian
[4] = tested on: SNB-19 CNS
[5] = tested on: LOX IMVI melanoma
[6] = tested on: EKVX NSCLC
[7] = tested on: OVCAR-3 ovarian
[8] = tested on: SN12C renal
[9] = tested on: IGROV1 ovarian
[10] = tested on: SW-620 colon
[11] = tested on: DU-145 prostate
[12] = tested on: RPMI-8226 leukemia
[13] = tested on: HCC-2998 colon
[14] = tested on: OVCAR-4 ovarian
[15] = tested on: NCI-H460 lung
[16] = tested on: M14 melanoma
[17] = tested on: SF-539 CNS
[18] = tested on: K-562 leukemia
[19] = tested on: HS 578T breast
[20] = tested on: NCI-H23 lung
[21] = tested on: BT-549 breast
[22] = tested on: ACHN renal
[23] = tested on: NCI-H522 lung
[24] = tested on: SK-MEL-2 melanoma
[25] = tested on: UACC-257 melanoma
[26] = tested on: HCT-116 colon
[27] = tested on: TK-10 renal
[28] = tested on: SR leukemia
[29] = tested on: NCI/ADR-RES ovarian
[30] = tested on: T-47D breast
[31] = tested on: MCF7 breast
[32] = tested on: HCT-15 colon
[33] = tested on: U251 CNS
[34] = tested on: HOP-92 NSCLC
[35] = tested on: SK-MEL-28 melanoma
[36] = tested on: KM12 colon
[37] = tested on: MDA-MB-231 breast
[38] = tested on: OVCAR-8 ovarian
[39] = tested on: PC-3 prostate
[40] = tested on: A549 NSCLC
[41] = tested on: SK-OV-3 ovarian
[42] = tested on: SF-295 CNS
[43] = tested on: MDA-MB-435
[44] = tested on: UO-31 renal
[45] = tested on: HT29 colon
[46] = tested on: 786-0 renal
[47] = tested on: CCRF-CEM leukemia
[48] = tested on: MOLT-4 leukemia
[49] = tested on: A498 renal
[50] = tested on: SNB-75 CNS
[51] = tested on: COLO 205 colon
[52] = tested on: SF-268 CNS
[53] = tested on: HL-60(TB) leukemia
[54] = tested on: RXF 393 renal
[55] = tested on: NCI-H226 lung
[56] = tested on: MALME-3M melanoma
[57] = tested on: HOP-62 NSCLC

SMILES: CCCCCCCCCCCC[n+]1ccccc1
- GI50 [1]: 1.06 µM
- TGI [1]: 2.26 µM
- GI50 [2]: 1.17 µM
- TGI [2]: 2.81 µM
- GI50 [3]: 1.57 µM
- TGI [3]: 7.67 µM
- GI50 [4]: 1.3 µM
- TGI [4]: 2.94 µM
- GI50 [5]: 1.17 µM
- TGI [5]: 2.72 µM
- GI50 [6]: 0.936 µM
- TGI [6]: 9.17 µM
- GI50 [7]: 0.835 µM
- TGI [7]: 2.88 µM
- GI50 [8]: 1.63 µM
- TGI [8]: 4.11 µM
- GI50 [9]: 1 µM
- TGI [9]: 2.85 µM
- GI50 [10]: 2 µM
- TGI [10]: 10.5 µM
- GI50 [11]: 2.21 µM
- TGI [11]: 11.6 µM
- GI50 [12]: 0.29 µM
- TGI [12]: 1.67 µM
- GI50 [13]: 1.37 µM
- TGI [13]: 5.29 µM
- GI50 [14]: 0.515 µM
- TGI [14]: 14.5 µM
- GI50 [15]: 1.76 µM
- TGI [15]: 4.58 µM
- GI50 [16]: 0.835 µM
- TGI [16]: 2.82 µM
- GI50 [17]: 1.47 µM
- TGI [17]: 4.9 µM
- GI50 [18]: 0.415 µM
- TGI [18]: 11.4 µM
- GI50 [19]: 1.87 µM
- TGI [19]: 5.87 µM
- GI50 [20]: 0.488 µM
- TGI [20]: 5.67 µM
- GI50 [21]: 1.01 µM
- TGI [21]: 3.03 µM
- GI50 [22]: 2.09 µM
- TGI [22]: 14.2 µM
- GI50 [23]: 0.665 µM
- TGI [23]: 2.84 µM
- GI50 [24]: 1.44 µM
- TGI [24]: 3.73 µM
- GI50 [25]: 1.23 µM
- TGI [25]: 3.97 µM
- GI50 [26]: 1.92 µM
- TGI [26]: 10.7 µM
- GI50 [27]: 0.941 µM
- TGI [27]: 2.67 µM
- GI50 [28]: 0.202 µM
- TGI [28]: 2.15 µM
- GI50 [29]: 14.9 µM
- TGI [29]: 50.7 µM
- GI50 [30]: 0.936 µM
- TGI [30]: 11.2 µM
- GI50 [31]: 1.25 µM
- TGI [31]: 9.38 µM
- GI50 [32]: 2.61 µM
- TGI [32]: 16.4 µM
- GI50 [33]: 0.997 µM
- TGI [33]: 2.44 µM
- GI50 [34]: 0.958 µM
- TGI [34]: 3.1 µM
- GI50 [35]: 1.68 µM
- TGI [35]: 5.12 µM
- GI50 [36]: 1.12 µM
- TGI [36]: 2.87 µM
- GI50 [37]: 1.34 µM
- TGI [37]: 3.4 µM
- GI50 [38]: 1.03 µM
- TGI [38]: 5.28 µM
- GI50 [39]: 0.374 µM
- TGI [39]: 2.76 µM
- GI50 [40]: 2.02 µM
- TGI [40]: 5.16 µM
- GI50 [41]: 1.73 µM
- TGI [41]: 6.35 µM
- GI50 [42]: 1.39 µM
- TGI [42]: 4.1 µM
- GI50 [43]: 1.18 µM
- TGI [43]: 3.22 µM
- GI50 [44]: 1.72 µM
- TGI [44]: 11 µM
- GI50 [45]: 0.381 µM
- TGI [45]: 5.47 µM
- GI50 [46]: 1.48 µM
- TGI [46]: 3.42 µM
- GI50 [47]: 1.34 µM
- TGI [47]: 8.55 µM
- GI50 [48]: 1.17 µM
- TGI [48]: 3.66 µM
- GI50 [49]: 1.57 µM
- TGI [49]: 7.48 µM
- GI50 [50]: 1.16 µM
- TGI [50]: 4.05 µM
- GI50 [51]: 0.868 µM
- TGI [51]: 2.66 µM
- GI50 [52]: 1.58 µM
- TGI [52]: 5.67 µM
- GI50 [53]: 0.422 µM
- TGI [53]: 1.99 µM
- GI50 [54]: 0.738 µM
- TGI [54]: 3.87 µM
- GI50 [55]: 1.44 µM
- TGI [55]: 8.83 µM
- GI50 [56]: 1.18 µM
- TGI [56]: 3.41 µM
- GI50 [57]: 1.9 µM
- TGI [57]: 5.57 µM

Source: PubChem BioAssay (NCI)
